Molecular target: Ov-CF-1 (cathepsin F) (Opisthorchis viverrini, UniProt Q5PXS3)
Experiment: fluorogenic release of NHMec
Assay type: biochemical
Conditions: autoactivation at pH 4.5, 37 °C, 1 mM DTT, 1 mM EDTA

## Cc1cc(=O)oc2cc(NC(=O)[C@H](CCCNC(=N)N)NC(=O)[C@H](CC(C)C)NC(=O)OCc3ccccc3)ccc12 [Z-Leu-Arg-NHMec]
  fluorogenic release of NHMec (ex 380 / em 460 nm): The rate of hydrolysis of Z-Leu-Arg-NHMec

Source: article PMC2888773 (Cellular microbiology, 2010)
